Source: patent US11312726B2, “Thienodiazepine derivatives and application thereof” (priority 2017, dated 2022)
Where two headings read alike, the source gives them in different places.

Legend:
[1] = In vivo pharmacokinetics test in mice; conditions: female Balb/c mice; for AUC(0-inf): read-out: Curve area (0-inf) AUC0-inf; for AUC(0-t): read-out: Curve area (0-t) AUC0-last; for half-life: read-out: Half life T1/2 (converted)
Experimental: In Vivo Pharmacokinetics Test of Compound 32 in Mice
Female Balb/c mice were used as test animals. The compound 32 was administrated intravenously and intragastrically to mice, then the drug concentrations in the plasma at different time points were determined by the LC/MS/MS method. The in vivo pharmacokinetic behavior of compound 32 in mice was studied, and its pharmacokinetic characteristics were evaluated.
1.1 Experiment drug: Compound 32
1.2 Experiment animals: Sixteen healthy adult female Balb/c mice were divided into four groups according to the principle of similar body weight, with four mice in each group. The animals were purchased from Shanghai Lingchang BioTech Co., Ltd. of Shanghai SLAC Laboratory Animal Co., Ltd., and the animal production license number was SCXK (Shanghai) 2013-0018.
An appropriate amount of the sample was taken, 5% final volume of DMSO was added, and then 95% final volume of 20% HP-β-CD was added. The mixture was ultrasonically stirred to obtain a 0.5 mg/mL clear solution. After filtration, it was used for the intravenous administration.
An appropriate amount of the sample was taken, and dissolved in a 0.5% sodium carboxymethyl cellulose solution. The mixture was ultrasonically stirred to obtain a 0.5 mg/mL homogeneous suspension, which was used for the intragastric administration.
Eight female Balb/c mice were divided into two groups. After fasting overnight, the first group was administered intravenously with the administration volume of 2.5 mL/kg and the dosage of 1 mg/kg. […]
After the female Balb/c mice were intravenously administrated, 30 μL of blood was taken from different mice at each time point of 0.0833, 0.25, 0.5, 1, 2, 4, 8 and 24 hours, and placed in test tubes containing 2 μL of EDTA-K2; and after the female Balb/c mice were intragastrically administrated, 30 μL of blood was taken at an alternative location at each time point of 0.25, 0.5, 1, 2, 4, 8 and 24 hours, and placed in test tubes containing 2 μL of EDTA-K2. The tube was centrifuged at 3000 g for 15 minutes to separate the plasma, and the separated plasma was stored at −60° C. Animals could take food 2 hours after the administration.
The LC/MS/MS method was used to measure the content of the compound to be tested in the plasma after the intravenous and intragastric administration to the mice. The linear range of the method was 2.00-6000 nmol/L; the plasma samples were analyzed after the protein precipitation by acetonitrile treatment.

[2] = test system: MC38 mouse colon cancer cell transplantation tumor; experiment: In vivo anti-tumor effect, MC38 mouse colon cancer transplantation tumor model; conditions: for relative tumor proliferation rate T/C / tumor growth inhibition rate TGI: 20th day after administration
Experimental: In Vivo Anti-Tumor Effect of Compound 32 in MC38 Mouse Colon Cancer Cell Animal Transplantation Tumor Model
Week-age and weight: 6-7 weeks of age, 16-20 grams of body weight
Supplier: Shanghai SLAC Laboratory Animal Co., Ltd.
3. Experiment Methods and Steps
Mouse colon cancer MC38 cells (OBiO Technology (Shanghai) Corp., Ltd.) were cultured in monolayer in vitro, and the culture conditions were DMEM culture medium (Gibco; article number: 12100) with 10% fetal bovine serum. The culture was performed at 37° C. in 5% CO2 in an incubator. Conventional digestion treatment with 0.25% pancreatin-EDTA for passage was carried out. When the cells were in the exponential growth phase and the saturation was 80%-90%, the cells were harvested, counted, and inoculated.
3.2 Tumor Cell Inoculation
0.1 mL of 2×10^5 MC38 cells were subcutaneously inoculated into the right-back of each mouse. The random grouping and administration was carried out according to the tumor volume when the average tumor volume reached about 70 mm^3.
Tumor diameter was measured twice a week with vernier calipers. The equation for calculating tumor volume was V=0.5×a×b^2, wherein a and b represented the major and minor diameters of the tumor, respectively.
The tumor inhibition effect of the compound was evaluated by TGI (%) or relative tumor proliferation rate T/C (%). Relative tumor proliferation rate T/C (%)=TRTV/CRTV×100% (TRTV: RTV of the treatment group; CRTV: RTV of the negative control group). The relative tumor volume (RTV) was calculated according to the results of the tumor measurement. The calculation equation was RTV=Vt/V0, where V0 was the average tumor volume measured at the grouping and administration (i.e. D0), and Vt was the average tumor volume at the time of a certain measurement. TRTV and CRTV were obtained from the data on the same day.
TGI (%) reflected the tumor growth inhibition rate.
At the end of the experiment, the tumor weight would be measured and the Tweight/Cweight percentage would be calculated. Tweight and Cweight represented the tumor weights of the administration group and the medium control group, respectively.
Statistical analysis was performed using SPSS software based on the tumor volume and the tumor weight at the end of the experiment. The comparison between two groups was analyzed by t-test, and the comparison between three or more groups was analyzed by one-way ANOVA.

[3] = mouse, plasma, po, Intragastric, 3 mg/kg (table; text says 2 mg/kg)
[4] = mouse, plasma, Intravenous, 1 mg/kg
[5] = each administration group (15, 25, 50 mg/kg)

For `Cc1sc2c(c1C)C(c1ccc(Cl)cc1)=N[C@@H](CC(=O)Nc1ccc3c(c1)COC3=O)c1nnc(C)n1-2` [Compound 32], the “absorption (in words)” value [1] was “good absorption”, the “pharmacokinetic clearance (in words)” value [1] was “low pharmacokinetic clearance” and the AUC(0-inf) [1, 3] was 2.82 µM·h. For the same compound, the AUC(0-t) [1, 3] was 2.74 µM·h, the half-life [1, 3] was 1.47 h and the Tmax ([1]; mouse, plasma, po, Intragastric, 3 mg/kg (table; text says 2 mg/kg), read-out: Time to peak Tmax) was 1 h. It also gave a Vd ([1]; mouse, plasma, Intravenous, 1 mg/kg, read-out: Apparent distribution volume Vdss) of 1.19 L/kg, a clearance ([1]; mouse, plasma, Intravenous, 1 mg/kg, read-out: Clearance rate Cl) of 12.5 mL/min/kg and an AUC(0-inf) [1, 4] of 2.5 µM·h. For the same compound, the AUC(0-t) [1, 4] was 2.49 µM·h, the half-life [1, 4] was 1.09 h and the Cmax ([1]; mouse, po, Intragastric, 3 mg/kg (table; text says 2 mg/kg), plasma, read-out: Drug concentration in blood Cmax) was 930 nM. The “relative tumor proliferation rate T/C” value ([2]; 15 mg/kg p.o. BID × 20 days) was 33.68%, the “tumor growth inhibition rate TGI” value ([2]; 15 mg/kg p.o. BID × 20 days) was 68.81% and the “relative tumor proliferation rate T/C” value ([2]; 25 mg/kg p.o. BID × 20 days) was 27.59%. For the same compound, the “tumor growth inhibition rate TGI” value ([2]; 25 mg/kg p.o. BID × 20 days) was 75.21%, the “relative tumor proliferation rate T/C” value ([2]; 50 mg/kg p.o. BID × 20 days) was 10.04% and the “tumor growth inhibition rate TGI” value ([2]; 50 mg/kg p.o. BID × 20 days) was 93.46%. The “tolerance of the animals” value [2, 5] was “good tolerance” and the “tumor inhibition effect (in words)” value [2, 5] was “Significant tumor inhibition effects”.
